Assay results taken from PMC10349806 (Nature Communications, 2023).
Where “and” joins values, the source holds several entries; their conditions need not be identical. Equal entries are not always repeated.

Columns and labels:
PfCRT variant E198A = target: T1, PfCRT variant E198A (Plasmodium falciparum, UniProt Q9N623, A220S/E198A/I356T/K76T/M74I/N326S/N75E/Q271E/R371I); test: CQ uptake assay, oocytes expressing E198A; format: cell-based
T1 sequence (Q9N623 1-424 M74I/N75E/K76T/E198A/A220S/Q271E/N326S/I356T/R371I): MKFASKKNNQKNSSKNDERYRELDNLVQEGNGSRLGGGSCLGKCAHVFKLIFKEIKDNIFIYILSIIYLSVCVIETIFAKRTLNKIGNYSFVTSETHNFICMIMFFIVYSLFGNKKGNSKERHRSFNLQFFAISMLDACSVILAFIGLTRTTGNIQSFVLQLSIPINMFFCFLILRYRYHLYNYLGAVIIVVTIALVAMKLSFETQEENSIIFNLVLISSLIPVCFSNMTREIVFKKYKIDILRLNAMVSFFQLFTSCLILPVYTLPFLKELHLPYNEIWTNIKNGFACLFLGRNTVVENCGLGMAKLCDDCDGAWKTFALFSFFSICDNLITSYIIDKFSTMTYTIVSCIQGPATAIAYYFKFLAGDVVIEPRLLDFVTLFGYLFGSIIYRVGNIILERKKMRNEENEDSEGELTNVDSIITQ
Method: (§1) Site-directed mutagenesis of PfCRT^Dd2 was performed as described using the megaprimer method with overlap extension[21],[54]. The primer pairs used are listed in Supplementary Table 6. Please note that a codon-optimized and oocyte-adapted version of PfCRT^Dd2 was used[22] (Supplementary Fig. 16). The resulting DNA fragment was cloned into the SP64T expression vector and verified by sequencing.
(§2) Oocytes were obtained as described previously. Briefly, adult (>2 years old) female X. laevis frogs (NASCO) were anesthetized in a cooled solution of ethyl 3-amino benzoate methanesulfonate (0.1%, w/v), followed by a surgical removal of parts of the ovary. The ovary lobes were carefully dissected and small pieces of oocytes were incubated in Ca^2+-free ND96 buffer (96 mM NaCl, 2 mM KCl, 1 mM MgCl2 buffered with 5 mM HEPES/NaOH, pH 7.5) supplemented with collagenase D (0.1%, w/v; Roche), BSA (0.5%, w/v), and 9 mm Na2HPO4 at 18 °C for 14-16 h while gentle shaking. After incubation, the oocytes were carefully washed several times with ND96 buffer (96 mM NaCl, 2 mM KCl, 1.8 mM CaCl2, 1 mM MgCl2 buffered with 5 mM HEPES/NaOH, pH 7.5) supplemented with 100 mg l^−1 gentamycin). Defolliculated and healthy-looking stage V-VI oocytes were manually selected for RNA microinjection. The RNA was generated as following: The codon-optimized sequences of PfCRT variants were cloned into the pSP64T expression vector. After vector linearization using the restriction endonucleases BamHI or SalI (New England Biolabs), transcription was performed using the in vitro SP6 mMessage mMachine Kit (Ambion)[34]. The obtained RNA was kept at −80 °C and diluted with nuclease-free water to a concentration of 0.6 μg μl^−1. Precision-bore glass capillary tubes (3.5-inch glass capillaries; Drummond Scientific Co.) were pulled on a vertical puller (P-87 Flaming/Brown micropipette puller, Sutter Instrument Co.), graduated, and placed on a microinjector (Nanoject II Auto-Nanoliter Injector, Drummond Scientific Co.). 50 nl of nuclease-free water alone (control oocytes) or 50 nl of 0.6 μg μl^−1 RNA were injected under stereomicroscopic control. Injected oocytes were incubated for 46–72 h at 18 °C with twice-daily buffer changes before usage in experiments.
Drug uptake assays were performed as described previously[21],[22],[24],[34]. […] The direction of radio-labeled drug transport is here from the mostly acidic extracellular solution (pH 4.5 or 6.0, as indicated) into the oocyte cytosol (pH ∼ 7.2), which corresponds to the efflux of drug from the acidic digestive vacuole (pH 5.2) into the parasite cytoplasm (pH 7.2). The topology of PfCRT in the oolemma is such that both the N- and C-terminus face the extracellular milieu[3],[22]. In the parasite, the N- and C-terminus face the lumen of the digestive vacuole. CQ uptake kinetics were performed by incubating oocytes in ND96 buffer adjusted to a pH of 4.5, 5.0, 5.5, or 6.0 and supplemented with 50 nM [^3H]CQ and one of 7 different CQ concentrations (10 µM, 50 µM, 100 µM, 200 µM, 300 µM, 400 µM, 500 µM CQ). The reaction was stopped at the 60 min time point, which is in the linear uptake range[22],[34] (Supplementary Fig. 17). […] The radioactivity of each sample was measured using a liquid scintillation analyzer Tri-Carb 4910 TR (PerkinElmer). Oocytes that were injected with water instead of RNA were analyzed in parallel, representing the uptake of a drug by diffusion and/or endogenous permeation pathways. […]

PfCRT variant D313A = test: CQ uptake assay, oocytes expressing D313A; format: cell-based, Plasmodium falciparum
Method: as §1, §2
Drug uptake assays were performed as described previously[21],[22],[24],[34]. […] The direction of radio-labeled drug transport is here from the mostly acidic extracellular solution (pH 4.5 or 6.0, as indicated) into the oocyte cytosol (pH ∼ 7.2), which corresponds to the efflux of drug from the acidic digestive vacuole (pH 5.2) into the parasite cytoplasm (pH 7.2). The topology of PfCRT in the oolemma is such that both the N- and C-terminus face the extracellular milieu[3],[22]. In the parasite, the N- and C-terminus face the lumen of the digestive vacuole. CQ uptake kinetics were performed by incubating oocytes in ND96 buffer adjusted to a pH of 4.5, 5.0, 5.5, or 6.0 and supplemented with 50 nM [^3H]CQ and one of 7 different CQ concentrations (10 µM, 50 µM, 100 µM, 200 µM, 300 µM, 400 µM, 500 µM CQ). The reaction was stopped at the 60 min time point, which is in the linear uptake range[22],[34] (Supplementary Fig. 17). For determination of the amount of drug uptake for each oocyte, the reaction medium was removed and the oocytes were washed three times with 2 ml of ice-cold ND96 buffer. Each oocyte was individually transferred to a scintillation vial containing 5% sodium dodecyl sulfate (200 μl) for lysis. The radioactivity of each sample was measured using a liquid scintillation analyzer Tri-Carb 4910 TR (PerkinElmer). Oocytes that were injected with water instead of RNA were analyzed in parallel, representing the uptake of a drug by diffusion and/or endogenous permeation pathways. The resulting value represents the “background“ level of drug accumulation in oocytes (in-depth discussion in[22]). […]

[1] = E198A, 50 µM CQ, 1 h, mean ± SEM
[2] = pH 4.5, single replicates, Fig 1d left
[3] = pH 6.0, single replicates, Fig 1d left
[4] = D313A, 50 µM CQ, 1 h, mean ± SEM

## CCN(CC)CCCC(C)Nc1ccnc2cc(Cl)ccc12 (centres unmarked) [CQ, chloroquine]
PfCRT variant E198A; [1]
  Activity at pH 4.5: 1.23 ± 0.15 pmol h-1 oocyte-1
  Activity at pH 6.0: 3.10 ± 0.44 pmol h-1 oocyte-1
PfCRT variant E198A; E198A, CQ transport at pH 4.5 / pH 6.0
  R-value: 0.44 ± 0.11
PfCRT variant E198A; [2]
  E198A transport activity pH 4.5: 1.49 pmol oocyte-1 h-1 and 1.34 pmol oocyte-1 h-1 and 0.87 pmol oocyte-1 h-1
PfCRT variant E198A; [3]
  E198A transport activity pH 6.0: 2.08 pmol oocyte-1 h-1 and 3.94 pmol oocyte-1 h-1 and 3.27 pmol oocyte-1 h-1
PfCRT variant D313A; [4]
  Activity at pH 4.5: 1.49 ± 0.21 pmol h-1 oocyte-1
  Activity at pH 6.0: 4.55 ± 0.45 pmol h-1 oocyte-1
PfCRT variant D313A; D313A, CQ transport at pH 4.5 / pH 6.0
  R-value: 0.33 ± 0.04
PfCRT variant D313A; [2]
  D313A transport activity pH 4.5: 2.00 pmol oocyte-1 h-1 and 1.13 pmol oocyte-1 h-1 and 1.34 pmol oocyte-1 h-1
PfCRT variant D313A; pH 4.5 vs pH 6.0, Fig 1d left
  D313A R-value: 0.38 and 0.23 and 0.39
PfCRT variant D313A; [3]
  D313A transport activity pH 6.0: 5.27 pmol oocyte-1 h-1 and 4.91 pmol oocyte-1 h-1 and 3.47 pmol oocyte-1 h-1
